The values that follow come from ChEMBL document CHEMBL3243925, “Disteroidyl ethers. 1. Synthesis and oral long-lasting uterotrophic activity of 1,3,5(10)-estratrien-17-yl enol ethers of 3-keto steroids” (1977).

Assay [1] concerns Rattus norvegicus. Put plainly: Uterotrophic activity in spayed Wistar rat assessed as autopsies by measuring uterus weight at 0.1 umol, po after 2 weeks (reference value: 15.9 +/- 0.50 mg). Type of assay: functional.
In assay [2] the test system is Rattus norvegicus. As to the kind of experiment: Uterotrophic activity in spayed Wistar rat assessed as autopsies by measuring uterus weight at 0.1 umol, po after 1 week (reference value: 15.1 +/- 0.51 mg). The assay is classed as functional.

Activity calls are given as the source filed them. The rule behind the calls is not given here.

Turning to `C[C@]12CC[C@@H]3c4ccc(OC(=O)CCC(=O)O)cc4CC[C@H]3[C@@H]1CC[C@@H]2OC1=CC2=CC[C@@H]3[C@H](CC[C@]4(C)C(=O)CC[C@@H]34)[C@H]2CC1`, the results for the Activity in the assay on Rattus norvegicus [1] and in the assay on Rattus norvegicus [2] were 36.8 mg and 60.7 mg, respectively.

Regarding `C#C[C@]1(OC(C)=O)CC[C@H]2[C@@H]3CC=C4C=C(O[C@H]5CC[C@H]6[C@@H]7CCc8cc(O)ccc8[C@H]7CC[C@]56C)CC[C@@H]4[C@H]3CC[C@@]21C`, the Activity in the assay with Rattus norvegicus [1] amounted to 26.7 mg; in the assay on Rattus norvegicus [2] it was 38.1 mg.

As to `CC(=O)O[C@]1(C(C)=O)CC[C@H]2[C@@H]3CC(C)=C4C=C(O[C@H]5CC[C@H]6[C@@H]7CCc8cc(OC(=O)c9ccccc9)ccc8[C@H]7CC[C@]56C)CC[C@]4(C)[C@H]3CC[C@@]21C`, the values for the Activity with Rattus norvegicus [1] and in the assay on Rattus norvegicus [2] were 21.9 mg and 26.6 mg, respectively.

In the case of `C#C[C@]1(OC(C)=O)CC[C@H]2[C@@H]3CC=C4C=C(O[C@H]5CC[C@H]6[C@@H]7CC(=O)c8cc(OC(=O)c9ccccc9)ccc8[C@H]7CC[C@]56C)CC[C@@H]4[C@H]3CC[C@@]21C`, the outcome in the assay on Rattus norvegicus [1] and in the assay with Rattus norvegicus [2] was inactive.

Consider `C#C[C@]1(O)CC[C@H]2[C@@H]3CCc4cc(O)ccc4[C@H]3CC[C@@]21C` [ETHINYL ESTRADIOL], for which the figures for the Activity with Rattus norvegicus [1] and with Rattus norvegicus [2] were 20.5 mg and 22.5 mg, respectively.

As for `C#C[C@]1(OC(C)=O)CC[C@H]2[C@@H]3CC=C4C=C(O[C@H]5CC[C@H]6[C@@H]7CCc8cc(OC(=O)CCC)ccc8[C@H]7CC[C@]56C)CC[C@@H]4[C@H]3CC[C@@]21C`, the Activity in the assay with Rattus norvegicus [1] is 18.3 mg; with Rattus norvegicus [2], 26.5 mg.

On to `C#C[C@]1(OC(C)=O)CC[C@H]2[C@@H]3CC=C4C=C(O[C@H]5CC[C@H]6[C@@H]7CCc8cc(OC(C)=O)ccc8[C@H]7CC[C@]56C)CC[C@@H]4[C@H]3CC[C@@]21C`, for which the Activity worked out at 25.4 mg in the assay with Rattus norvegicus [1] and 36.6 mg in the assay on Rattus norvegicus [2].

For `C[C@]12CC[C@@H]3c4ccc(O)cc4CC[C@H]3[C@@H]1CC[C@@H]2OC1=CC2=CC[C@@H]3[C@H](CC[C@]4(C)C(=O)CC[C@@H]34)[C@@]2(C)CC1`, the results for the Activity in the assay on Rattus norvegicus [1] and with Rattus norvegicus [2] were 38.9 mg and 56.9 mg, respectively.

Take `CC(=O)O[C@@]1(C)CC[C@H]2[C@@H]3CC=C4C=C(O[C@H]5CC[C@H]6[C@@H]7CCc8cc(OC(=O)c9ccccc9)ccc8[C@H]7CC[C@]56C)CC[C@]4(C)[C@H]3CC[C@@]21C`: the Activity in the assay on Rattus norvegicus [1] was found to be 21.5 mg; with Rattus norvegicus [2] it was 26.4 mg.

`C#C[C@]1(OC(=O)CCCCCC)CC[C@H]2[C@@H]3CC=C4C=C(O[C@H]5CC[C@H]6[C@@H]7CCc8cc(OC)ccc8[C@H]7CC[C@]56C)CC[C@@H]4[C@H]3CC[C@@]21C`: the Activity in the assay on Rattus norvegicus [1] is on record as 15.4 mg; in the assay on Rattus norvegicus [2] it was 18.2 mg.

For the compound `C[C@]12CCC(O[C@H]3CC[C@H]4[C@@H]5CCc6cc(O)ccc6[C@H]5CC[C@]34C)C[C@@H]1CC[C@@H]1[C@@H]2CC[C@]2(C)[C@@H](O)CC[C@@H]12` (some centres not stated), the outcome in the assay on Rattus norvegicus [1] and in the assay on Rattus norvegicus [2] was inactive.

Take `C[C@]12CC[C@@H]3c4ccc(O)cc4CC[C@H]3[C@@H]1CC[C@@H]2OC1=CC2=CC[C@@H]3[C@H](CC[C@@]4(C)[C@H]3CC[C@]4(C)O)[C@@]2(C)CC1`: the Activity stood at 33.5 mg in the assay with Rattus norvegicus [1] and 48.1 mg with Rattus norvegicus [2].

Regarding `C#C[C@]1(OC(=O)CCCCCC)CC[C@H]2[C@@H]3CC=C4C=C(O[C@H]5CC[C@H]6[C@@H]7CCc8cc(OC(=O)c9ccccc9)ccc8[C@H]7CC[C@]56C)CC[C@@H]4[C@H]3CC[C@@]21C`, the Activity is 24.2 mg in the assay on Rattus norvegicus [1] and 35.6 mg with Rattus norvegicus [2].

On to `C[C@]12CC[C@@H]3c4ccc(O)cc4CC[C@H]3[C@@H]1CC[C@@H]2OC1=CC2=CC[C@@H]3[C@H](CC[C@]4(C)[C@@H](O)CC[C@@H]34)[C@H]2CC1`, for which the Activity turned out to be 41.6 mg with Rattus norvegicus [1] and 59.9 mg in the assay on Rattus norvegicus [2].

Regarding `C#C[C@]1(OC(=O)C(C)OCC)CC[C@H]2[C@@H]3CC=C4C=C(O[C@H]5CC[C@H]6[C@@H]7CCc8cc(OC(C)OCC)ccc8[C@H]7CC[C@]56C)CC[C@@H]4[C@H]3CC[C@@]21C` (some centres not stated), the Activity was 18 mg in the assay with Rattus norvegicus [1] and 23.6 mg in the assay with Rattus norvegicus [2].

Consider `CC(=O)O[C@]1(C(C)=O)CC[C@H]2[C@@H]3CC=C4C=C(O[C@H]5CC[C@H]6[C@@H]7CCc8cc(OC(=O)c9ccccc9)ccc8[C@H]7CC[C@]56C)CC[C@]4(C)[C@H]3CC[C@@]21C`, for which the Activity came out at 23.3 mg in the assay on Rattus norvegicus [1] and 27.5 mg with Rattus norvegicus [2].
